The target in one test is B-Raf V600E (Homo sapiens, UniProt P15056, V600E). Put plainly: B-Raf V600E biochemical kinase inhibition (AlphaScreen, biotin-MEK1 substrate). The note with it: 100 μM ATP. The procedure:
(§1) Compounds to be tested are diluted in dimethyl sulfoxide to a concentration of 0.1 mM. These are serially diluted 15 μL into 30 μL of dimethyl sulfoxide seven times in 96 well plates for a total of 8 dilution points, and for each dilution point 1 μL is added to a well of an assay plate. […] The reaction is started with addition of 10 μL of 200 μM ATP (i.e. final 100 μM ATP). […] The plates are incubated for 3 hours at room temperature and read on Envision reader (Perkin Elmer). […] The signal vs. compound concentration is used to determine the IC50.

For test [1], the system named is SW620 colon adenocarcinoma cells (wild-type B-RAF). Put plainly: SW620 cell growth inhibition (ATPlite). Type of test: cell-based. The conditions noted are these: Homo sapiens, SW-620, 72 h; SW620, 3 days incubation. The procedure: (§2) Compounds are assessed in a variety of cell based assays. For example human cell lines with B-Raf V600E mutation (A375 melanoma, SKMEL3 melanoma, and COL0205 colon adenocarcinoma), as well as tumorigenic cell lines with wild-type B-RAF (SW620 colon adenocarcinoma) or with Ras mutations (SKMEL2 melanoma and IPC298 melanoma). Similar assays may be used to assess additional tumorigenic cell lines with Ras mutations, including, but not limited to, M202, M207, M243, M244, M296, S117, HCT116, HCT15, DLD1, MiaPaCa, A549, NCI-H23, NCI-H460, HOP62, MDA-MB231, Hs-578T, HL60, MOLT-4, and CCRF-CEM.
(§3) On day 1, cells are counted, then centrifuged in a conical tube for 5 minutes at 1000 rpm. The supernatant is removed and cells are re-suspended as follows: • SW620 (ATCC catalog #CCL-27): resuspend in Leibovitz's L-15 medium, 2 mM L-glutamine, 10% fetal bovine serum to 6×10^4 cells/mL. • A375 (ATCC catalog #CRL-1619): resuspend in Dulbecco's modified Eagle's medium, 4 mM L-glutamine, 4.5 g/L D-glucose, 10% fetal bovine serum to 6×10^4 cells/mL. • COL0205 (ATCC catalog #CCL-222): resuspend in RPMI 1640, 2 mM L-glutamine, 1.5 g/L sodium bicarbonate, 4.5 g/L D-glucose, 10 mM HEPES, 1.0 mM sodium pyruvate, 10% fetal bovine serum to 6×10^4 cells/mL. • SKMEL2 (ATCC catalog #HTB-68): resuspend in Minimum Eagle essential medium, 2 mM L-glutamine, 1.5 g/L sodium bicarbonate, 0.1 mM non-essential amino acids, 1.0 mM sodium pyruvate, 10% fetal bovine serum to 6×10^4 cells/mL. • SKMEL3 (ATCC catalog #HTB-69): resuspend in McCoy's 5A medium, 1.5 mM L-glutamine, 15% fetal bovine serum to 6×10^4 cells/mL. • IPC298 (DSMZ catalog #ACC 251): resuspend in RPMI 1640, 2 mM L-glutamine, 10% fetal bovine serum to 6×10^4 cells/mL.
(§4) The cells are plated, 50 μL in each well of a 96-well dish (Corning 3610) and incubated at 37° C. in 5% CO2 overnight, cells plated to a final concentration of cells as follows:
(§5) On day 2, compound at a maximum concentration of 5 mM is serially diluted 1:3 for a total of 8 point titration with DMSO as a control. A 1 μL aliquot of each dilution point and control is added to 249 μL growth media and 50 μL is added to a well containing cells, providing 10 μM compound at the maximum concentration point. The cells are incubated for 3 days at 37° C. in 5% CO2.
(§6) On day 5, ATPlite 1 step Luminescence Assay System (Perkin Elmer #6016739) is brought to room temperature along with the cell cultures. ATPlite is added 25 μL to each well, shake for 2 minutes, and the cells are incubated at room temperature for 10 minutes, then luminescence is read on Safire reader. The measured luminescence correlates directly with cell number, such that the reading as a function of compound concentration is used to determine the IC50 value.
(§7) It is understood that the results of these assays may vary as assay conditions are varied. Inhibition levels determined under the conditions described herein represent a relative activity for the compounds tested under the specific conditions employed. The cell based assays are likely to show variability due to the complexity of the system and the sensitivity thereof to any changes in the assay conditions. […] Results for compounds that are tested and show substantially no inhibition below the highest tested concentration are represented as “-” in the tables below. In some instances, the compounds were not tested in all of the assays, or assay results were not valid, as indicated by NA in the tables below.

For test [2], the system named is A375 melanoma cells (B-Raf V600E). The experiment in a line: A375 cell growth inhibition (ATPlite). Type of test: cell-based. The conditions noted are these: Homo sapiens, A-375, 72 h; A375, 3 days incubation. The method, then: as §2, §3, §4, §5, §6, §7
The subject of test [3] is COLO205 colon adenocarcinoma cells (B-Raf V600E). Put plainly: COLO205 cell growth inhibition (ATPlite). Type of test: cell-based. The conditions noted are these: Homo sapiens, COLO 205, 72 h; COLO205, 3 days incubation. The method, then:
as §2, §3, §4, §5, §6, §7

For test [4], the system named is SKMEL2 melanoma cells (Ras mutation). The experiment in a line: SKMEL2 cell growth inhibition (ATPlite). Type of test: cell-based. The conditions noted are these: Homo sapiens, SK-MEL-2, 72 h; SKMEL2, 3 days incubation. The method, then: as §2, §3, §4
SKMEL2: 2,000 cells per well.
as §5, §6, §7

In another test the target is B-Raf (Homo sapiens, UniProt P15056). The experiment in a line: B-Raf biochemical kinase inhibition (AlphaScreen, biotin-MEK1 substrate). The note with it: 100 μM ATP. The procedure:
as §1

The target of the next test is T1, A-Raf (Homo sapiens, UniProt P10398).
T1 sequence (P10398 1-606): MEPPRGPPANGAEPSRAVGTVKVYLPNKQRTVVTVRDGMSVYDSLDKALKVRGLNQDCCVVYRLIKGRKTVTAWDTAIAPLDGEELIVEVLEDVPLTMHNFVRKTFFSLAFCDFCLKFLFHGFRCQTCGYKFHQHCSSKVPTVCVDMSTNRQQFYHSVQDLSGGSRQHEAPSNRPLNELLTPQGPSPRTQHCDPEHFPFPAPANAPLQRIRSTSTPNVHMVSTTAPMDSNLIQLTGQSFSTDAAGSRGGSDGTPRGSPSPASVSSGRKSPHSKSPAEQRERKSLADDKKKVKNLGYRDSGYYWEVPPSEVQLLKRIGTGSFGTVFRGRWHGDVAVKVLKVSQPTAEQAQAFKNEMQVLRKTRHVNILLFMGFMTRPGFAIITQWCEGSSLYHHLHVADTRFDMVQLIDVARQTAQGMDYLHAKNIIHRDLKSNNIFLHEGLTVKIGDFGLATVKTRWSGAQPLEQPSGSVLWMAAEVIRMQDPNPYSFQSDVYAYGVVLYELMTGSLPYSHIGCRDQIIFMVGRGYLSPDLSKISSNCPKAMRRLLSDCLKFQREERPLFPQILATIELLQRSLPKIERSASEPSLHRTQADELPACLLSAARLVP
Put plainly: A-Raf biochemical kinase inhibition (AlphaScreen, biotin-MEK1 substrate). The conditions noted are these: 100 μM ATP. The method, then: as §1

Another test deals with c-Raf-1 (Homo sapiens, UniProt P04049). The experiment in a line: c-Raf-1 biochemical kinase inhibition (AlphaScreen, biotin-MEK1 substrate). The conditions noted are these: 100 μM ATP. The method, then: as §1

The record followed here is patent US8198273B2, “Compounds and methods for kinase modulation, and indications therefor” (Plexxikon Inc., priority 2009, dated 2012).

Chain of B-Raf (P15056 whole entry): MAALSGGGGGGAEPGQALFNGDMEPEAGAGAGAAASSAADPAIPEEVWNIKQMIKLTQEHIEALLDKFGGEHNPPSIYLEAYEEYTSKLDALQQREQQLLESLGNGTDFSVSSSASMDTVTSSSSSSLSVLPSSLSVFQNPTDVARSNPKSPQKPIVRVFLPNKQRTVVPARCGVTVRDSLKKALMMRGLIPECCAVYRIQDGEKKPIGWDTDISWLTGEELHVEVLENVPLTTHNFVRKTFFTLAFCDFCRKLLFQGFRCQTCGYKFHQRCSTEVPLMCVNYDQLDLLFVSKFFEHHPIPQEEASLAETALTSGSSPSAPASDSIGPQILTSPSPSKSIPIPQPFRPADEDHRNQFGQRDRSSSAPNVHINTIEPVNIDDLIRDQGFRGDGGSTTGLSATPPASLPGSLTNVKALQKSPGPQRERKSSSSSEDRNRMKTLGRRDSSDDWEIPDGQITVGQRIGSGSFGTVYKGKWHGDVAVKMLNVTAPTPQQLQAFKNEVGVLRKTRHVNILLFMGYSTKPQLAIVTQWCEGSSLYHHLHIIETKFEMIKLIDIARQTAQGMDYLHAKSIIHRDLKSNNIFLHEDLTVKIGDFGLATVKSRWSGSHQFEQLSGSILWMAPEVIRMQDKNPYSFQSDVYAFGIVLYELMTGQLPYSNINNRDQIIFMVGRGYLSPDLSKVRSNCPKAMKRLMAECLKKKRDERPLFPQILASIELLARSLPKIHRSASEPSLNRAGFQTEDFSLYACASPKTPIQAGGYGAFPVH
Chain of B-Raf V600E (P15056 whole entry V600E): as the sequence (P15056 whole entry) above, with V600E counted along it
Chain of c-Raf-1 (P04049 whole entry): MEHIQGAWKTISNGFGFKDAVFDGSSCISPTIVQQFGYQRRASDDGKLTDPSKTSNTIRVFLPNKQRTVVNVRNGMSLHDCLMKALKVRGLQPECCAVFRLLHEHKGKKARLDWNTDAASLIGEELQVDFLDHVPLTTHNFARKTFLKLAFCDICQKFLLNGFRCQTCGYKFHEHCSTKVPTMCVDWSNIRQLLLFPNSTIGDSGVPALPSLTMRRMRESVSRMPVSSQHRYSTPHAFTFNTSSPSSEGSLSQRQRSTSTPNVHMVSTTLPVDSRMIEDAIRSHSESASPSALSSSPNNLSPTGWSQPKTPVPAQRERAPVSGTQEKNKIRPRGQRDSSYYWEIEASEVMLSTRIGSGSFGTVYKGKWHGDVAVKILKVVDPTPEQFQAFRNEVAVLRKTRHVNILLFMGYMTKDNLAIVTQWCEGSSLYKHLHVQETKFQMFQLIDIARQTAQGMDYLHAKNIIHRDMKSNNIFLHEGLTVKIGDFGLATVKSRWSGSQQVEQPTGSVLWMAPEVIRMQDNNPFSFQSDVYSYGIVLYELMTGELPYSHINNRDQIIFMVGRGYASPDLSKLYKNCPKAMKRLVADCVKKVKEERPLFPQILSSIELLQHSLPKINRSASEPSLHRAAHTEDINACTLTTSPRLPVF

For `CCCS(=O)(=O)Nc1ccc(F)c(C(=O)c2c[nH]c3ncc(-c4ccc(NC(C)=O)cc4)cc23)c1F` [P-2161, N-(4-{3-[2,6-Difluoro-3-(propane-1-sulfonylamino)-benzoyl]-1H-pyrrolo[2,3-b]pyridin-5-yl}-phenyl)-acetamide], the IC50 on B-Raf V600E was < 10 nM; in test [1] it was > 10000 nM; in test [2], < 1000 nM; in test [3], < 1000 nM; in test [4] it was < 10000 nM.

In the case of `CCCS(=O)(=O)Nc1ccc(F)c(C(=O)c2c[nH]c3ncc(-c4ccc(C)nc4F)cc23)c1F` [P-2172, Propane-1-sulfonic acid {2,4-difluoro-3-[5-(2-fluoro-6-methyl-pyridin-3-yl)-1H-pyrrolo[2,3-b]pyridine-3-carbonyl]-phenyl}-amide], the IC50 against B-Raf was < 100 nM; against B-Raf V600E it was < 100 nM; in test [1], < 10000 nM; in test [2], < 1000 nM; in test [3], < 1000 nM; in test [4], < 5000 nM.

On to `CCCS(=O)(=O)Nc1ccc(F)c(C(=O)c2c[nH]c3ncc(-c4ccc(C(N)=O)nc4)cc23)c1F` [P-2220, 5-{3-[2,6-Difluoro-3-(propane-1-sulfonylamino)-benzoyl]-1H-pyrrolo[2,3-b]pyridin-5-yl}-pyridine-2-carboxylic acid amide], for which the IC50 at A-Raf is < 10 nM; against B-Raf, < 100 nM; at B-Raf V600E it was < 100 nM; on c-Raf-1, < 100 nM; in test [1], > 10000 nM; in test [2], < 1000 nM. Besides, the half-inhibitory concentration (IC50) in test [3] is < 1000 nM.

Take `CCCS(=O)(=O)Nc1ccc(F)c(C(=O)c2c[nH]c3ncc(-c4ccc(O)nc4)cc23)c1F` [P-2234, Propane-1-sulfonic acid {2,4-difluoro-3-[5-(6-hydroxy-pyridin-3-yl)-1H-pyrrolo[2,3-b]pyridine-3-carbonyl]-phenyl}-amide]: the IC50 on A-Raf was < 10 nM; at B-Raf it was < 10 nM; at B-Raf V600E it was < 10 nM; against c-Raf-1, < 10 nM; in test [1], > 10000 nM; in test [2] it was < 5000 nM. Besides, the IC50 in test [3] was < 5000 nM; in test [4], > 10000 nM.

As for `CC(C)CS(=O)(=O)Nc1ccc(F)c(C(=O)c2c[nH]c3ncc(-c4cnn(C)c4)cc23)c1F` [P-2299, 2-Methyl-propane-1-sulfonic acid {2,4-difluoro-3-[5-(1-methyl-1H-pyrazol-4-yl)-1H-pyrrolo[2,3-b]pyridine-3-carbonyl]-phenyl}-amide], the IC50 on B-Raf was < 10 nM; against B-Raf V600E it was < 10 nM; in test [1], > 10000 nM; in test [2] it was < 1000 nM; in test [3], < 1000 nM; in test [4], > 10000 nM.
